Measurements as given in PMC4431592 (Journal of medicinal chemistry, 2015).

Experiments:
GAK [1] = biological target: T1, GAK (Homo sapiens, UniProt O14976); experiment: KINOMEscan active site-directed competition binding assay, GAK
T1 sequence (O14976 1-1311): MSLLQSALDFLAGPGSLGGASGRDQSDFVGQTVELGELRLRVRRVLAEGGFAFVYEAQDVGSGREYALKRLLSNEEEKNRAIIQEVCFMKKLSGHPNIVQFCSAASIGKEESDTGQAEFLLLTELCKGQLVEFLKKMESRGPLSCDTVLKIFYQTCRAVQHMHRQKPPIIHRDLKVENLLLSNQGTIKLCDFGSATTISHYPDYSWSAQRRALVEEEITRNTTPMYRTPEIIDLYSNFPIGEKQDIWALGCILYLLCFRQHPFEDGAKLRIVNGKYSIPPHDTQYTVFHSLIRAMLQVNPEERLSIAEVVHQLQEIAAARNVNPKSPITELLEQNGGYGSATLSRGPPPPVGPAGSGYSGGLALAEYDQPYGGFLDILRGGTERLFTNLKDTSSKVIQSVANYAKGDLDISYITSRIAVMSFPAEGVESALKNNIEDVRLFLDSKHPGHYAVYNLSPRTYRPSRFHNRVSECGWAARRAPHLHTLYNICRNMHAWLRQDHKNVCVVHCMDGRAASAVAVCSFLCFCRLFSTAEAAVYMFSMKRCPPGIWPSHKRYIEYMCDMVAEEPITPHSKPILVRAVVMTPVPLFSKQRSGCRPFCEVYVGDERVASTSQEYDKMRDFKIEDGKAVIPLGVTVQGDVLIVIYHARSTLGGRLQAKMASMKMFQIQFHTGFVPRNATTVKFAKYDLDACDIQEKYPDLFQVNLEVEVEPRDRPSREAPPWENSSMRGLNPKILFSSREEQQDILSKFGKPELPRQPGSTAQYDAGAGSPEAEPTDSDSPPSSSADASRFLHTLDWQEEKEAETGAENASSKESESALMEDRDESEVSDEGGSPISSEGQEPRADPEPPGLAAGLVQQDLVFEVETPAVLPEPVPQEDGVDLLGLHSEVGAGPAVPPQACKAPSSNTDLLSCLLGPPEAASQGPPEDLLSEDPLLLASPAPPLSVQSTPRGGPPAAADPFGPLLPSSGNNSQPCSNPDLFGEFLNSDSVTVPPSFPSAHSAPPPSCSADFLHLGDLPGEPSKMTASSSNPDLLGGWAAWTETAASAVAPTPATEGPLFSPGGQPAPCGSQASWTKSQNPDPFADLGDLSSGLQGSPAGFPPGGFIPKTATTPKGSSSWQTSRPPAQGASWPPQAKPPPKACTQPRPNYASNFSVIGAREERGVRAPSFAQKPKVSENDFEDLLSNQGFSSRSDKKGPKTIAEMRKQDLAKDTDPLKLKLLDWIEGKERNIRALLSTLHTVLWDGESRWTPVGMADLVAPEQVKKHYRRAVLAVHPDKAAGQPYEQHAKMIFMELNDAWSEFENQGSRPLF

EGFR = EGFR (Homo sapiens, UniProt P00533); experiment: EGFR binding / anti-EGFR activity
Sequence of EGFR (P00533 25-1210): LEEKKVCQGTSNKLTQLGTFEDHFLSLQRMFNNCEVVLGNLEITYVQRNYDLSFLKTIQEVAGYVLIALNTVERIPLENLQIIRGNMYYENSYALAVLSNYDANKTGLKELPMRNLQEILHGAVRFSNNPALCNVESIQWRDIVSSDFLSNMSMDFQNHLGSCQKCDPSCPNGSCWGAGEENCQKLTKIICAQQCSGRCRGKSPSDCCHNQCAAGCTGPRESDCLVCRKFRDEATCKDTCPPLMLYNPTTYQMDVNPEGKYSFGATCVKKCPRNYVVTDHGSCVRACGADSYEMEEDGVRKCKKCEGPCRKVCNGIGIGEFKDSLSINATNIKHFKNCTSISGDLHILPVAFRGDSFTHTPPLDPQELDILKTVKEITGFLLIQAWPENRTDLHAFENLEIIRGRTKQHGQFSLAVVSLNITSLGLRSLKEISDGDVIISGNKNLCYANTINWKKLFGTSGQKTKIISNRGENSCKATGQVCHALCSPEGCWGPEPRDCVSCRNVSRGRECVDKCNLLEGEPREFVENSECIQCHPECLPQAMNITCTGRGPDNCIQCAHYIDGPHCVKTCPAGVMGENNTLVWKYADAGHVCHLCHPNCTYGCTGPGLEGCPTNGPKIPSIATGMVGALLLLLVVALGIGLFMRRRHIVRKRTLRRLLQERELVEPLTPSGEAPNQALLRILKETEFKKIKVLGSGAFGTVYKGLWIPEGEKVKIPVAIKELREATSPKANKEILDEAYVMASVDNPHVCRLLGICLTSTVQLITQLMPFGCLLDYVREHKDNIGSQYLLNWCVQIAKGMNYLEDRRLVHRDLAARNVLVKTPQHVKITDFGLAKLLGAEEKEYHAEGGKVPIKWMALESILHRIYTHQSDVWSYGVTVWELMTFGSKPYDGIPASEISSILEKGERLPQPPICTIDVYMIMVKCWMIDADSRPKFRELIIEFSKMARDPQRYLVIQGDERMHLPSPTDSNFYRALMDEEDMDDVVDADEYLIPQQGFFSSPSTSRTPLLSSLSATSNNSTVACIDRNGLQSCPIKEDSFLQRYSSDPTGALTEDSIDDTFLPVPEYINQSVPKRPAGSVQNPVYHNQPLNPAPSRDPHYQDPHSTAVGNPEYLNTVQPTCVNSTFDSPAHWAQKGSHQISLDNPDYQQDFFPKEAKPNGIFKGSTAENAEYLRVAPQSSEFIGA

HCV RNA replication = HCV RNA replication by luciferase assay after electroporation; format: cell-based, hepatitis C virus; settings: 72 hours postelectroporation, treated daily
AP2M1 phosphorylation = AP2M1 phosphorylation by Western analysis in Huh-7.5 cells; format: cell-based, human; settings: calyculin A, versus DMSO control
Huh-7.5 cells = experiment: Cellular viability, alamarBlue-based assay; settings: HCVpp entry assay, 4 hour treatment
GAK [2] = biological target: T1, GAK; settings: cited from earlier work

c1csc(-c2cnc3c(N4CCOCC4)snc3c2)c1 [Compound 12a, 4-(6-(Thiophen-2-yl)isothiazolo[4,3-b]pyridin-3-yl)morpholine]
GAK affinity (in words) (GAK [1]): equipotent

COc1ccc(-c2cnc3c(N4CCOCC4)snc3c2)c(OC)c1 [Compound 12c, 4-(6-(2,4-Dimethoxyphenyl)isothiazolo[4,3-b]pyridin-3-yl)morpholine]
GAK affinity (in words) (GAK [1]): lacks any affinity

c1cc2c(cc1-c1cnc3c(N4CCOCC4)snc3c1)OCO2 [Compound 12f, 4-(6-(Benzo[d][1,3]dioxol-5-yl)isothiazolo[4,3-b]pyridin-3-yl)morpholine]
GAK affinity (in words) (GAK [1]): completely inactive

COc1cc(-c2cnc3c(N4CCOCC4)snc3c2)cc(OC)c1OC [Compound 12g, 4-(6-(3,4,5-Trimethoxyphenyl)isothiazolo[4,3-b]pyridin-3-yl)morpholine]
anti-EGFR activity (in words) (EGFR): lack anti-EGFR activity | effect on HCV RNA replication (in words) (HCV RNA replication): did not affect HCV RNA replication | p-AP2M1 to AP2M1 ratio (in words) (AP2M1 phosphorylation): reduced | effect on cellular viability (in words) (Huh-7.5 cells): minimal effect on cellular viability

COc1cc(-c2cnc3c(N4CCOCC4)snc3c2)ccc1N [Compound 12i, 2-Methoxy-4-(3-morpholinoisothiazolo[4,3-b]pyridin-6-yl)aniline]
anti-EGFR activity (in words) (EGFR): lack anti-EGFR activity | effect on HCV RNA replication (in words) (HCV RNA replication): did not affect HCV RNA replication

COc1ccc(-c2cnc3c(NCCc4ccccc4)snc3c2)cc1OC [Compound 13k, 6-(3,4-dimethoxyphenyl)-N-phenethylisothiazolo[4,3-b]pyridin-3-amine]
GAK affinity (in words) (GAK [1]): completely lacking GAK affinity

CCOc1cc2ncc(C#N)c(Nc3ccc(F)c(Cl)c3)c2cc1NC(=O)/C=C/CN(C)C [pelitinib]
Kd (in words) (GAK [2]): low nanomolar range
